Laboratory results taken from ChEMBL document CHEMBL1124723, “Selective inhibition of gamma-aminobutyric acid aminotransferase by (3R,4R),(3S,4S)- and (3R,4S),(3S,4R)-4-amino-5-fluoro-3-phenylpentanoic acids” (J Med Chem, 1990).

How the values were obtained:
[1] = Binding affinity against L-glutamate decarboxylase in pig brain; format: tissue-based, Sus scrofa
[2] = biological target: 4-aminobutyrate aminotransferase, mitochondrial (Sus scrofa, UniProt P80147); experiment: Binding affinity against Gamma-amino-N-butyrate transaminase in pig brain; format: tissue-based
Sequence of 4-aminobutyrate aminotransferase, mitochondrial (P80147 whole entry): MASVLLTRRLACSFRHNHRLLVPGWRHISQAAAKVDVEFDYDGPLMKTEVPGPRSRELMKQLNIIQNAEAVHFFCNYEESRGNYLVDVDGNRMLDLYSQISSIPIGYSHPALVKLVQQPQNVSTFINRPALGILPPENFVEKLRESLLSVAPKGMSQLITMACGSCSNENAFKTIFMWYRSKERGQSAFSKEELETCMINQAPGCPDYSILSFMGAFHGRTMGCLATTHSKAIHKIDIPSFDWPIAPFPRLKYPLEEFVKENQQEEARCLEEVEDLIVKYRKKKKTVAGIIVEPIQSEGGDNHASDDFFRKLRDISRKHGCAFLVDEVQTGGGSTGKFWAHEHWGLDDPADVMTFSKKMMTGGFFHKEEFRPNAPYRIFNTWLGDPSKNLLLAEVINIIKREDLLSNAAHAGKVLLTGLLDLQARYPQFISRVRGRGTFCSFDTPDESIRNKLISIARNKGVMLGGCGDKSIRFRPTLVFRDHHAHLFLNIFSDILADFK

## NC(CF)CCC(=O)O (stereo not drawn)
[1]
  Ki: 71 µM

## N[C@H](CF)[C@@H](CC(=O)O)c1ccccc1
[2]
  Ki: 1000 µM

## N[C@@H](CF)[C@@H](CC(=O)O)c1ccccc1
[2]
  Ki: 8000 µM
